Reference: patent US8343458B2, “Probes for in vivo targeting of active cysteine proteases” (The Board of Trustees of the Leland Stanford Junior …, priority 2008, dated 2013)
Where “and” joins values, the source holds several entries; their conditions need not be identical. Identical values can stand only once.

Assays:
MDA-MB-435 tumors = experiment: Biodistribution in nude mice bearing subcutaneous MDA-MB-435 tumors; format: in vivo, mouse; conditions: for Biodistribution: Blood / Biodistribution: Bone / Biodistribution: Brain / Biodistribution: Heart / Biodistribution: Intestines / Biodistribution: Kidney / Biodistribution: Liver / Biodistribution: Lung / Biodistribution: Muscle / Biodistribution: Pancreas / Biodistribution: Spleen / Biodistribution: Stomach / Biodistribution: Tumor / Tumor/Blood ratio / Tumor/Muscle ratio: MDA-MB-435 tumor mice, i.v. 740 kBq
Protocol: All animal studies were carried out in compliance with Federal and local institutional rules for the conduct of animal experimentation. Female athymic nude mice (nu/nu) were obtained from Charles River Laboratories (Boston, Mass.) at 7-8 weeks old and kept under sterile conditions. The nude mice were inoculated subcutaneously in the right shoulder with 2×10^6 cultured C2C12/Ras cells or 5×10^6 MDA-MB-435 cells. When the tumors reach 0.5-0.8 cm in diameter, the tumor bearing mice were subjected to in vivo biodistribution studies. For biodistribution studies, the mice bearing C2C12/Ras or MDA-MB-435 tumor xenografts (n=3 for each group) were injected with 740 KBq (20 μCi) of ^64Cu labeled tracer through the tail vein and sacrificed at different time points post injection (p.i.). Tumor and normal tissues of interest were removed and weighed, and their radioactivity was measured in a gamma-counter. The radioactivity uptake in the tumor and normal tissues was expressed as a percentage of the injected radioactive dose per gram of tissue (% ID/g).
We next examined the overall biodistribution of ^64Cu-Z-FK(DOTA)-AOMK using athymic nude mice carrying subcutaneously grafted C2C12/Ras and MDA-MB-435 tumors. […] Importantly, we observed rapid accumulation of radioactivity in the C2C12/Ras tumors expressing high levels of cysteine cathepsins (0.35±0.13% ID/g at 0.5 h p.i.). This activity remained in the tumors resulting in an uptake of 0.27±0.05% ID/g at 24 h p.i. For the MDA-MB-435 tumors with lower cysteine cathepsin expression, tumor uptake was approximately 2 fold lower at each time point relative to the C2C12/Ras tumors (P<0.05). […] The highest radioactivity was found in the liver due to high endogenous expression of various cysteine cathepsins. Moderate renal accumulation was also observed at all times in both tumor models.
Data are expressed as the percentage administered activity (injected dose) per gram of tissue (% ID/g) after intravenous injection of 740 kBq (20 μCi) of ^64Cu-Z-FK(DOTA)-AOMK at 0.5, 2, and 24 h pi (n=3). Significant lower tumor uptake and tumor/blood, tumor/muscle ratio in MDA-MB-435 breast cancer (P<0.05) were observed.

cathepsins B and L = experiment: Labeling of intact tumor cells (SDS-PAGE, gel scan); format: cell-based, mouse (C2C12/Ras), human (MDA-MB-435); conditions: C2C12/Ras and MDA-MB-435 cells, 555 KBq probe in culture medium for 2 h
Text: FIG. 2 is a series of figures which, taken together, show the structure and function of representative in vivo probes. FIG. 2A is a schematic drawing of a chelator—conjugated probe, illustrating several component moieties. FIGS. 2B and 2C are gels showing expression and activity of enzyme targets of such probe, with a radionuclide label attached to the illustrated structure, showing the expression and activity of CB in a mouse myoblast cell line C2C12Ras and human breast cancer cell line MDA-MB-435. […] Cells were pretreated with JPM-OEt (50 μM) (+) or with control DMSO (0.1%) (−) for 2 h and labeled by addition of ^64Cu-Z-FK(DOTA)-AOMK (555 KBq, 15 μCi) to culture medium for 2 h. Cells were collected, lysed and analyzed after SDS-PAGE. The labeled proteases were visualized by scanning of the gel with a Typhoon 9410 imager.
Before applying the radiolabel probe in vivo we first tested the ability of the probe to label multiple tumor cell lines grown in vitro. We initially examined the labeling of the human breast cancer cell line MBA-MB-435 and a mouse myoblastoma cell line that had been transformed by overexpression of the ras oncogene (C2C12/Ras). Both of these cell lines were used for in vivo imaging studies with the NIRF-labeled cysteine cathepsin probes. To confirm earlier studies of these cells using the NIRF probes we labeled them with general Cy5-labeled probe GB123 (FIG. 1C). […] Labeling of the same cells with ^64Cu-Z-FK(DOTA)-AOMK confirmed that the DOTA produced a similar labeling pattern to that observed for the NIRF probe GB123.
C2C12/Ras and MDA-MB-435 cells (0.25 M each well) were seeded in a six-well plate one day before the study. Cells were pretreated with the general papain family protease inhibitor JPM-OEt (50 μM^28) or with control DMSO (0.1%) for 1 h and labeled by addition of ^64Cu-Z-FK(DOTA)-AOMK (555 KBq, 15 μCi) to culture medium for 2 h. Cells was then washed with PBS and lysed. Equal amounts of protein per lane were separated by 12% SDS-PAGE. […] The labeled bands were quantified with ImageJ 1.36b (public domain software from National Institute of Health).

Biodistribution: Blood (MDA-MB-435 tumors; 2 h p.i.): 0.29 ± 0.01 % ID/g
Biodistribution: Bone (MDA-MB-435 tumors; 2 h p.i.): 0.18 ± 0.06 % ID/g
Biodistribution: Brain (MDA-MB-435 tumors; 2 h p.i.): 0.04 ± 0.01 % ID/g
Biodistribution: Heart (MDA-MB-435 tumors; 2 h p.i.): 0.43 ± 0.09 % ID/g
Biodistribution: Intestines (MDA-MB-435 tumors; 2 h p.i.): 1.95 ± 1.24 % ID/g
Biodistribution: Kidney (MDA-MB-435 tumors; 2 h p.i.): 1.11 ± 0.05 % ID/g
Biodistribution: Liver (MDA-MB-435 tumors; 2 h p.i.): 2.64 ± 0.08 % ID/g
Biodistribution: Lung (MDA-MB-435 tumors; 2 h p.i.): 0.72 ± 0.08 % ID/g
Biodistribution: Muscle (MDA-MB-435 tumors; 2 h p.i.): 0.06 ± 0.00 % ID/g
Biodistribution: Pancreas (MDA-MB-435 tumors; 2 h p.i.): 0.25 ± 0.05 % ID/g
Biodistribution: Spleen (MDA-MB-435 tumors; 2 h p.i.): 0.31 ± 0.05 % ID/g
Biodistribution: Stomach (MDA-MB-435 tumors; 2 h p.i.): 0.45 ± 0.07 % ID/g
Biodistribution: Tumor (MDA-MB-435 tumors; 2 h p.i.): 0.18 ± 0.00 % ID/g
Tumor/Blood ratio (MDA-MB-435 tumors; 2 h p.i.): 0.61 and 0.61 ± 0.02
Tumor/Muscle ratio (MDA-MB-435 tumors; 2 h p.i.): 3.03 and 3.03 ± 0.20
Biodistribution: Blood (MDA-MB-435 tumors; 24 h p.i.): 0.28 ± 0.13 % ID/g
Biodistribution: Bone (MDA-MB-435 tumors; 24 h p.i.): 0.20 ± 0.20 % ID/g
Biodistribution: Brain (MDA-MB-435 tumors; 24 h p.i.): 0.05 ± 0.01 % ID/g
Biodistribution: Heart (MDA-MB-435 tumors; 24 h p.i.): 0.42 ± 0.15 % ID/g
Biodistribution: Intestines (MDA-MB-435 tumors; 24 h p.i.): 0.35 ± 0.08 % ID/g
Biodistribution: Kidney (MDA-MB-435 tumors; 24 h p.i.): 0.63 ± 0.08 % ID/g
Biodistribution: Liver (MDA-MB-435 tumors; 24 h p.i.): 1.37 ± 0.19 % ID/g
Biodistribution: Lung (MDA-MB-435 tumors; 24 h p.i.): 0.47 ± 0.08 % ID/g
Biodistribution: Muscle (MDA-MB-435 tumors; 24 h p.i.): 0.06 ± 0.02 % ID/g
Biodistribution: Pancreas (MDA-MB-435 tumors; 24 h p.i.): 0.18 ± 0.11 % ID/g
Biodistribution: Spleen (MDA-MB-435 tumors; 24 h p.i.): 0.31 ± 0.21 % ID/g
Biodistribution: Stomach (MDA-MB-435 tumors; 24 h p.i.): 0.34 ± 0.29 % ID/g
Biodistribution: Tumor (MDA-MB-435 tumors; 24 h p.i.): 0.14 ± 0.05 % ID/g
Tumor/Blood ratio (MDA-MB-435 tumors; 24 h p.i.): 0.54 ± 0.12
Tumor/Muscle ratio (MDA-MB-435 tumors; 24 h p.i.): 2.21 ± 0.34
Tumor uptake in MDA-MB-435 tumors, fold lower relative to C2C12/Ras tumors (MDA-MB-435 tumors; at each time point (2 h, 24 h), P<0.05): approximately 2 fold
Compound: Cc1cccc(C)c1C(=O)OCC(=O)[C@H](CCCCNC(=O)CN1CCN(CC(=O)[O-])CCN(CC(=O)O)CCN(CC(=O)[O-])CC1)NC(=O)[C@H](Cc1ccccc1)NC(=O)OCc1ccccc1.[64Cu+2] [^64Cu-Z-FK(DOTA)-AOMK]
Labeling of active cathepsins in intact cells (cathepsins B and L): efficiently modifies active cathepsins B and L
